According to ChEMBL document CHEMBL1142638, “Thalicosides A1-A3, minor cycloartane bisdesmosides from Thalictrum minus” (2000):

What was measured:
Candida albicans = experiment: Antifungal activity against Candida albicans ATCC 90028 at 1 mg/mL after 24 hrs by spectrophotometry; assay type: functional
Staphylococcus aureus = experiment: Antibacterial activity against Staphylococcus aureus ATCC 6538P at 1 mg/mL after 24 hrs by spectrophotometry; assay type: functional

CC(C)=CC[C@H](O)[C@@H](C)[C@H]1[C@@H](O)C[C@@]2(C)[C@@H]3CC[C@H]4[C@](C)(CO[C@@H]5O[C@H](CO)[C@@H](O)[C@H](O)[C@H]5O)[C@@H](O[C@@H]5OC[C@H](O)[C@H](O)[C@H]5O)CC[C@@]45C[C@@]35CC[C@]12C [THALICOSIDE A2]
Activity (Candida albicans): 78.7%
Activity (Staphylococcus aureus): 45.7%
